Measurements reported in ChEMBL document CHEMBL3045041, “Synthesis of novel aryl(4-substituted pyridin-3-yl)methyl carbamates and their herbicidal activity” (J Pestic Sci, 2012).

Experiments:
[1] = tested on: Rotala indica; assay: Herbicidal activity against Rotala indica compound treated at 1 to 2.2-leaf stage measured after 26 days by outdoor concrete pot test; type: functional
[2] = tested on: Oryza sativa; assay: Phytotoxicity against Oryza sativa cv. Kinuhikari (rice) planted at 3 cm depth measured after 26 days; type: organism-based; conditions: in vivo, 624 h
[3] = tested on: Lindernia procumbens; assay: Herbicidal activity against Lindernia procumbens compound treated at 1 to 2.2-leaf stage measured after 26 days by outdoor concrete pot test; type: functional
[4] = tested on: Schoenoplectiella juncoides; assay: Herbicidal activity against Schoenoplectiella juncoides compound treated at 0.5-leaf stage measured after 26 days by outdoor concrete pot test; type: functional
[5] = tested on: Elatine triandra; assay: Herbicidal activity against Elatine triandra compound treated at 1 to 2.2-leaf stage measured after 26 days by outdoor concrete pot test; type: functional
[6] = tested on: Echinochloa oryzicola; assay: Herbicidal activity against Echinochloa oryzicola compound treated at 2.5-leaf stage measured after 26 days by outdoor concrete pot test; type: functional
[7] = tested on: Pontederia vaginalis; assay: Herbicidal activity against Monochoria vaginalis compound treated at 1.5-leaf stage measured after 26 days by outdoor concrete pot test; type: functional
[8] = tested on: Echinochloa oryzicola; assay: Herbicidal activity against Echinochloa oryzicola compound treated at emergence stage measured after 26 days by outdoor concrete pot test; type: functional
[9] = tested on: Echinochloa oryzicola; assay: Herbicidal activity against Echinochloa oryzicola under greenhouse condition compound treated at 2.5 leaf stage measured after 14 to 20 days; type: functional
[10] = tested on: Schoenoplectiella juncoides; assay: Herbicidal activity against Schoenoplectiella juncoides under greenhouse condition compound treated at 0.5 leaf stage measured after 14 to 20 days; type: functional
[11] = tested on: Echinochloa oryzicola; assay: Herbicidal activity against Echinochloa oryzicola under greenhouse condition compound treated at emergence stage measured after 14 to 20 days; type: functional
[12] = tested on: Oryza sativa; assay: Phytotoxicity against Oryza sativa cv. Kinuhikari (rice) planted at 3 cm depth measured after 20 to 25 days; type: organism-based; conditions: in vivo

SMILES	ED80 [1] [gAi/ha]	ED20 [2] [gAi/ha]	ED80 [3] [gAi/ha]	ED80 [4] [gAi/ha]	ED80 [5] [gAi/ha]	ED80 [6] [gAi/ha]	ED80 [7] [gAi/ha]	ED80 [8] [gAi/ha]	ED80 [9] [gAi/ha]	ED80 [10] [gAi/ha]	ED80 [11] [gAi/ha]	ED20 [12] [gAi/ha]
CN(C)C(=O)OC(c1cnccc1C(F)(F)F)c1cccc2ccccc12 (single isomer, unassigned; (-))	<63	500	<63	125	<63	<63	<100	<31	–	–	–	–
CCN(CC)C(=O)OC(c1cnccc1C(F)(F)F)c1cccc2ccccc12 (centres undefined)	–	–	–	–	–	–	–	–	250	1000	31	> 2000
CN(C)C(=O)OC(c1cnccc1C(F)(F)F)c1ccc2c3c(cccc13)CC2 (centres undefined)	–	–	–	–	–	–	–	–	>500	>1000	500	> 2000
CN(C)C(=O)OC(c1cnccc1C(F)(F)F)c1cccc2ccccc12 (single isomer, unassigned; (+))	–	1000	–	>500	–	–	–	125	–	–	–	–
